We go through 5 substances from patent US8178506B2, “Oligomeric compounds and compositions for use in modulation of small non-coding RNAs” (Regulus Therapeutics Inc., priority 2003, dated 2012).

Holding throughout (format): cell-based, mouse
The test system of one data set is IL-12 mRNA. The data set can be described thus: IL-12 mRNA in LPS-activated primary murine macrophages. Particulars: for IL-12 mRNA expression, % UTC: LPS, average of 3 treatments; for IL-12 mRNA expression, +IFN % UTC: 300 nM oligomeric compound, stimulation with IFN-gamma and LPS, average of 2 experiments. The procedure:
(§1) To investigate the role of miRNAs in the immune response, oligomeric compounds of the present invention targeting miRNAs were tested for their effects upon lipopolysaccharide (LPS)-activated primary murine macrophages. Macrophages participate in the immune response, for example, in the recognition and phagocytosis of microorganisms, including bacteria. Interferon-gamma (IFN-gamma) released by helper T cells is one type of signal required for macrophage activation, and LPS can serve as an additional stimulus. LPS is a component of the gram-negative bacterial cell wall and acts as an agonist for toll-like receptor 4 (TLR4), the primary LPS receptor expressed by macrophages. The proinflammatory cytokines interleukin-12 (IL-12) and interleukin-6 (IL-6) are induced by LPS treatment of macrophages, thus the expression of the mRNAs encoding these cytokines was used to evaluate the response of macrophages to LPS following treatment with oligomeric compounds targeting miRNAs.
(§2) Macrophages were isolated as follows. Female C57B1/6 mice (Charles River Laboratories, Wilmington, Mass.) were injected intraperitoneally with 1 ml 3% thioglycollate broth (Sigma-Aldrich, St. Louis, Mo.), and peritoneal macrophage cells were isolated by peritoneal lavage 4 days later. The cells were plated in 96-well plates at 40,000 cells/well for one hour in serum-free RPMI adjusted to contain 10 mM HEPES (Invitrogen Life Technologies, Carlsbad, Calif.), allowed to adhere, then non-adherent cells were washed away and the media was replaced with RPMI containing 10 mM HEPES, 10% FBS and penicillin/streptomycin (“complete” RPMI; Invitrogen Life Technologies, Carlsbad, Calif.).
(§3) Oligomeric compounds were introduced into the cells using the non-liposomal transfection reagent FuGENE 6 Transfection Reagent (Roche Diagnostics Corp., Indianapolis, Ind.). Oligomeric compound was mixed with FuGENE 6 in 1 mL of serum-free RPMI to achieve a concentration of 10 μL FuGENE per 1000 nM oligomeric compound. The oligomeric compound/FuGENE complex was allowed to form at room temperature for 20 minutes. This mixture was diluted to the desired concentration of oligomeric compound by the addition of the appropriate volume of complete RPMI. The final ratio of FuGENE 6 to oligomeric compound was 1 μL of FuGENE 6 per 100 nM oligomeric compound. A volume of 100 μL of oligomeric compound/FuGENE/RPMI was added to each well of the 96-well plate in which the macrophages were cultured. Each oligomeric compound treatment was repeated in triplicate.
(§4) Following oligomeric compound treatment, cells were stimultated with LPS. Cells were cultured in the presence of the transfection complex for approximately 24 to 28 hours at 37° C. and 5% CO2, after which the medium containing the transfection complex was removed from the cells, and complete RPMI containing 100 ng/mL LPS (Sigma-Aldrich Corp., St. Louis, Mo.) was added to the cells for a period of approximately 24 hours. Control samples included (1) cells receiving no oligomeric compound, stimulated with LPS and (2) cells receiving neither oligomeric compound nor LPS treatment.
(§5) In another embodiment, following oligomeric compound treatment, cells were first activated by IFN-gamma, to amplify the response to LPS. Cells were cultured in the presence of the transfection complex for approximately 24 hours at 37° C. and 5% CO2, at which point the medium containing the transfection complex was removed from the cells, and complete RPMI containing 100 ng/mL recombinant mouse IFN-gamma (R&D Systems, Minneapolis, Minn.) was added to the cells. After the 4 hour treatment with INF-gamma, cells were treated with 100 ng/mL LPS for approximately 24 hours. Control samples included (1) cells receiving no oligomeric compound, stimulated with LPS and (2) cells receiving neither oligomeric compound nor LPS treatment. […]

A further data set deals with IL-6 mRNA. The data set can be described thus: IL-6 mRNA in LPS-activated primary murine macrophages. Particulars: for IL-6 mRNA expression, % UTC: average of 3 treatments; for IL-6 expression: IFN-gamma-stimulated and unstimulated cells, 75-600 nM. The procedure: as §1, §2, §3, §4, §5
Another data set concerns B16-F10 cells. The data set can be described thus: Cell cycle assay in B16-F10 cells. As to conditions: 150 nM, 48 hours, relative to untreated control. The method, then:
BJ cells were routinely cultured in MEM high glucose with 2 mM L-glutamine and Earle's BSS adjusted to contain 1.5 g/L sodium bicarbonate and supplemented with 10% fetal bovine serum, 0.1 mM non-essential amino acids and 1.0 mM sodium pyruvate (all media and supplements from Invitrogen Life Technologies, Carlsbad, Calif.). B16-F10 cells were routinely cultured in DMEM high glucose (Invitrogen Life Technologies, Carlsbad, Calif.) supplemented with 10% fetal bovine serum (Invitrogen Life Technologies, Carlsbad, Calif.). T47D cells were cultured in DMEM High glucose media (Invitrogen Life Technologies, Carlsbad, Calif.) supplemented with 10% fetal bovine serum. […] Cells were plated on collagen-coated 24-well plates (Falcon-Primaria #3047, BD Biosciences, Bedford, Mass.) at approximately 50,000 cells per well and allowed to attach to wells overnight.
In further studies, additional cell lines were treated with oligomeric compounds targeted against miRNAs to assess the effects of each oligomeric compound on cell cycling. BJ, B16, T47D, and HeLa cells were cultured and transfected as described above. […] T47Dp53 cells are T47D cells that have been transfected with and selected for maintenance of a plasmid that expresses a wildtype copy of the p53 gene (for example, pCMV-p53; Clontech, Palo Alto, Calif.), using standard laboratory procedures. BJ cells were treated with 200 nM of each oligomeric compound, and T47D, T47Dp53, HeLa, and B16 cells were treated with 150 nM of each oligomeric compound. The human foreskin fibroblast BJ cell line represents a non-cancer cell line, while HeLa, T47D, T47Dp53 cells and the mouse melanoma cell line B16-F10 represent cancerous cell lines. For comparison, oligomeric compounds ISIS 183891 (SEQ ID NO: 847) and ISIS 285717 ([…]; herein incorporated as SEQ ID NO: 857), both targeting the kinesin-like 1/Eg5 mRNA, involved in cell cycling, were used as positive controls. The random-mer ISIS 29848 was used as a negative control. Additionally, the oligomeric compounds ISIS Number 25690 ([…]; herein incorporated as SEQ ID NO: 858) and ISIS Number 25691 ([…]; herein incorporated as SEQ ID NO: 859), targeted to nucleotides 3051-3070 and 3085-3104, respectively, of the mRNA encoding the Drosha RNase III (GenBank Accession NM_013235.2, incorporated herein as SEQ ID NO: 860) were also tested. ISIS Number 25690 and ISIS Number 25691 are 5-10-52′-MOE gapmer compounds, 20 nucleotides in length, with phosphorothioate internucleoside linkages throughout the oligomeric compound. All cytidine residues are 5-methylcytidines. Transfections were performed using the methods described herein. Cells were prepared for flow cytometry 48-hours after oligonucleotide treatment. Results of these studies are shown in Table 35, where data are expressed as percentage of cells in each phase relative to the untreated control cells in that phase.

Setting [1] is: normalized to LPS-treated cells without oligomeric compound.

In the oligonucleotide strings, read from the 5' end, every base follows the letter of its sugar. An asterisk marks phosphorothioate; unmarked linkages are phosphodiester. Other units and linkages are bracketed, terminal groups are in braces. A string of capitals states the bases alone. e = 2'-O-(2-methoxyethyl) (MOE); [5mC] = 5-methylcytosine; d = 2'-deoxy (DNA) Some results are limits rather than exact numbers.

Regarding “289606 (antisense CCUUCCCUGAAGGUUCCUCC; all 2'-MOE, all C 5-methyl, all phosphorothioate, T or U not given here) [compound 289606]”, the “IL-12 mRNA expression, % UTC” value in the data set with IL-12 mRNA (75 nM, +IFN) came out at 59 % UTC; with IL-12 mRNA (75 nM, −IFN), 89 % UTC; in the data set with IL-12 mRNA (150 nM, +IFN), 46 % UTC; with IL-12 mRNA (150 nM, −IFN), 99 % UTC; with IL-12 mRNA (300 nM, +IFN), 52 % UTC; in the data set with IL-12 mRNA (300 nM, −IFN), 80 % UTC. For the same substance, the “IL-12 mRNA expression, % UTC” value with IL-12 mRNA (600 nM, +IFN) was 66 % UTC; in the data set with IL-12 mRNA (600 nM, −IFN), 98 % UTC. The “IL-12 mRNA expression, +IFN % UTC” value in the data set with IL-12 mRNA (setting [1]) is 129 % UTC. Besides, the “IL-6 mRNA expression, % UTC” value in the data set on IL-6 mRNA (75 nM, +IFN) came to 78 % UTC; with IL-6 mRNA (75 nM, −IFN), 77 % UTC; with IL-6 mRNA (150 nM, +IFN), 69 % UTC; in the data set with IL-6 mRNA (150 nM, −IFN) it was 68 % UTC; in the data set with IL-6 mRNA (300 nM, +IFN) it was 70 % UTC; in the data set with IL-6 mRNA (300 nM, −IFN), 65 % UTC. In addition, the “IL-6 mRNA expression, % UTC” value in the data set on IL-6 mRNA (600 nM, +IFN) is 59 % UTC; with IL-6 mRNA (600 nM, −IFN) it was 77 % UTC.

In the case of “285717 (antisense TCGGTTCTTTCCAAGGCTGA; chemistry not given here) [compound 285717]”, in the data set on B16-F10 cells, the “% cells in cell cycle phase G1” value was found to be 72%, the “% cells in cell cycle phase G2/M” value came to 220%, the “% cells in cell cycle phase S” value stood at 78% and the “% cells in cell cycle phase aneuploid” value is reported as 178%. In the data set with B16-F10 cells, the “% cells in cell cycle phase subG1” value was determined as 627%.

With “229927 (antisense e[5mC]*e[5mC]*eA*e[5mC]*eA*dT*dT*dG*dA*dG*dT*dT*dT*d[5mC]*dT*eT*eT*eA*eA*eG) [compound 229927]”, the “IL-12 mRNA expression, % UTC” value in the data set on IL-12 mRNA (75 nM, +IFN) is 46 % UTC; in the data set with IL-12 mRNA (75 nM, −IFN) it was 67 % UTC; in the data set on IL-12 mRNA (150 nM, +IFN), 35 % UTC; in the data set on IL-12 mRNA (150 nM, −IFN) it was 53 % UTC; in the data set on IL-12 mRNA (300 nM, +IFN), 16 % UTC; with IL-12 mRNA (300 nM, −IFN), 45 % UTC. Also, the “IL-12 mRNA expression, % UTC” value is on record as 8 % UTC with IL-12 mRNA (600 nM, +IFN) and 46 % UTC in the data set on IL-12 mRNA (600 nM, −IFN). The “IL-12 mRNA expression, −IFN % UTC” value in the data set on IL-12 mRNA (300 nM oligomeric compound and LPS, no IFN-gamma pretreatment, single experiment, normalized to LPS-treated cells without oligomeric compound) came to 92 % UTC. In addition, the “IL-12 mRNA expression, +IFN % UTC” value in the data set on IL-12 mRNA (setting [1]) is given as 145 % UTC. The “IL-6 mRNA expression, % UTC” value came out at 54 % UTC with IL-6 mRNA (75 nM, +IFN); 57 % UTC in the data set with IL-6 mRNA (75 nM, −IFN); 39 % UTC with IL-6 mRNA (150 nM, +IFN); 52 % UTC with IL-6 mRNA (150 nM, −IFN); 40 % UTC in the data set on IL-6 mRNA (300 nM, +IFN); 44 % UTC with IL-6 mRNA (300 nM, −IFN). The “IL-6 mRNA expression, % UTC” value came to 69 % UTC in the data set on IL-6 mRNA (600 nM, +IFN) and 104 % UTC with IL-6 mRNA (600 nM, −IFN).

For the substance “CTTCCAGTCGGGGATGTTTACA (anti-miR; chemistry not fully specified) [ISIS 327921, uniform 2′-MOE PS; targets mir-30d]”, the “IL-12 expression, % of the control” value in the data set on IL-12 mRNA (IFN-gamma then LPS, 75 nM) came out at 14%. The “IL-12 expression, % of the untreated control” value in the data set with IL-12 mRNA (IFN-gamma then LPS, all other doses (150, 300, 600 nM)) is listed as “less than 10%”. Besides, the “IL-12 expression, percentage of untreated control” value in the data set on IL-12 mRNA (LPS alone, 75, 150, 300 and 600 nM) is no less than 53%. Also, the “IL-12 mRNA expression” value in the data set with IL-12 mRNA (LPS-stimulated primary murine macrophages) is “inhibited IL-12 mRNA expression in a dose-dependent manner”. The IL-6 expression entry in the data set on IL-6 mRNA is on record as “increased in a dose-dependent manner”.

“AACCCACCGACAGCAATGAATGTT (chemistry not given here) [ISIS 327941, uniform 2′-MOE PS; targets mir-181b]”: in the data set with IL-12 mRNA (IFN-gamma then LPS, all doses), the “IL-12 mRNA expression, % of the untreated control” value is listed as “less than 5%”. The IL-6 expression entry with IL-6 mRNA is “increased in a dose-dependent manner”.
